Reference: patent US7985759B2, “Dipeptidyl peptidase IV inhibitors and processes for their preparation and pharmaceutical compositions containing them” (Matrix Laboratories Ltd., priority 2006, dated 2011)

Each molecule was assayed against T1, Human recombinant DPP-IV (Homo sapiens, UniProt P27487) (assay: Assay of Dipeptidyl Peptidase IV activity (hydrolysis of Ala-Pro-AFC, fluorometric)). Settings: human recombinant DPP-IV (expressed in insect Sf9 cells), 20 μM Ala-Pro-AFC, 15 min preincubation, 30 min at 37° C., pH 8.0.
T1 construct: host or cells: Sf9 insect cells
Assay type: biochemical
Procedure: Assay of Dipeptidyl Peptidase IV Activity
The inhibition of proteolytic activity of DPP-IV was assayed by following the hydrolysis of Ala-Pro-7-amino-4-trifluoromethylcoumarin (Ala-Pro-AFC) and fluorometric quantitation of the liberated AFC. Human recombinant DPP-IV (expressed in insect Sf9 cells) was used for the assay. Test compounds were dissolved in dimethyl sulfoxide (DMSO). Generally, the enzyme (about 20 ng/ml in 100 mM Tris-HCl buffer, pH 8.0) was preincubated in the absence (1% DMSO) and presence of various concentrations of the test compounds for 15 min at 37° C. The reaction was initiated by the addition of 20 μM Ala-Pro-AFC and further incubated for 30 min at 37° C. The AFC liberated was measured in a spectrofluorometer with excitation and emission wavelengths set at 400 nm and 510 nm, respectively. Results are expressed as percent inhibition of enzyme activity. A reference standard (a known inhibitor of DPP-IV) was always included in the assay.

T1 sequence (P27487 whole entry): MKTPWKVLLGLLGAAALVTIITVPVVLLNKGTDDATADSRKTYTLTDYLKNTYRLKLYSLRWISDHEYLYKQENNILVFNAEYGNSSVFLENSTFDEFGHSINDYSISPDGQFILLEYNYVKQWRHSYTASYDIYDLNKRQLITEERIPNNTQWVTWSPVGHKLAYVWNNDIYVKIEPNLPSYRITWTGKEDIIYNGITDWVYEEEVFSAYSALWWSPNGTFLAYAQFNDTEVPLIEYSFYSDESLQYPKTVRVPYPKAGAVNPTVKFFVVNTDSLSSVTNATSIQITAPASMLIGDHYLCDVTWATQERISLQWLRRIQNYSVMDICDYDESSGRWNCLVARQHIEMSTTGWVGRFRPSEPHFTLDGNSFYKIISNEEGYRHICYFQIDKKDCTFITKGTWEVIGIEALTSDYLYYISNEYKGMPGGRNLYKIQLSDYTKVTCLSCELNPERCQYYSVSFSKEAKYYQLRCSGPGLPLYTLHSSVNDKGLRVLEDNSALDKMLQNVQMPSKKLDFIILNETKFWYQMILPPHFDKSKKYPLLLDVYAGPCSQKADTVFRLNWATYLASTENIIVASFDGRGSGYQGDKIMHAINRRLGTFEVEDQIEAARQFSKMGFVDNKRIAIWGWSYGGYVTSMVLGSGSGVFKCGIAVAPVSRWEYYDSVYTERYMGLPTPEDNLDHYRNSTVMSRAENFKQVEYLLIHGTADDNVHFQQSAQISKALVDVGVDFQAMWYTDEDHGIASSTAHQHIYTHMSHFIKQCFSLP

`N#C[C@@H]1CCCN1C(=O)CNC12CC3CC1CC(Cn1cncn1)(C3)C2` (stereo partly drawn) [Example 1, (2S)-1-[1H-1,2,4-triazol-1-ylmethyl(tricyclo[3.3.1.0^3,7]non-3-ylamino)acetyl]pyrrolidine-2-carbonitrile] and `N#C[C@@H]1CSCN1C(=O)CNC12CC3CC1CC(Cn1cncn1)(C3)C2` (stereo partly drawn) [Example 4, (4R)-3-{N-[2-(1H-1,2,4-triazol-1-ylmethyl)hexahydro-2,5-methanopentalen-3a(1H)-yl]glycyl}-1,3-thiazolidine-4-carbonitrile] are within 1.5-fold of each other in IC50: 0.0081 µM for the first, 0.007 µM for the second.

Going from `N#C[C@@H]1C[C@H](F)CN1C(=O)CNC12CC3CC1CC(Cn1cncn1)(C3)C2` (stereo partly drawn) [Example 2, (2S,4S)-4-fluoro-1-{N-[2-(1H-1,2,4-triazol-1-ylmethyl)hexahydro-2,5-methanopentalen-3a(1H)-yl]glycyl}pyrrolidine-2-carbonitrile] to `N#C[C@@H]1C[C@@H](F)CN1C(=O)CNC12CC3CC1CC(Cn1cncn1)(C3)C2` (stereo partly drawn) [Example 3, (2S,4R)-4-fluoro-1-{N-[2-(1H-1,2,4-triazol-1-ylmethyl)hexahydro-2,5-methanopentalen-3a(1H)-yl]glycyl}pyrrolidine-2-carbonitrile], the IC50 rises from 0.0028 µM to greater than 0.3 µM. The first is the more potent here.

Going from `N#C[C@@H]1CCCN1C(=O)CNC12CC3CC1CC(Cn1cnnn1)(C3)C2` (stereo partly drawn) [Example 5, (2S)-1-{N-[2-(1H-tetrazol-1-ylmethyl)hexahydro-2,5-methanopentalen-3a(1H)-yl]glycyl}pyrrolidine-2-carbonitrile] to `N#C[C@@H]1CCCN1C(=O)CNC12CC3CC1CC(Cc1ncon1)(C3)C2` (stereo partly shown) [Example 31], the IC50 rises from 0.011 µM to 0.021 µM (1.9-fold). The first is the more potent here.

First: CN1CCN(CC23CC4CC(C2)C(NCC(=O)N2CCC[C@H]2C#N)(C4)C3)CC1 (stereo partly drawn) [Example 6, (2S)-1-{N-[2-[(4-methylpiperazin-1-yl)methyl]hexahydro-2,5-methanopentalen-3a (1H)-yl]glycyl}pyrrolidine-2-carbonitrile]
Second: N#C[C@@H]1CCCN1C(=O)CNC12CC3CC1CC(CN1CCSCC1)(C3)C2 (stereo partly drawn) [Example 7, (2S)-1-{N-[2-(thiomorpholin-4-ylmethyl)hexahydro-2,5-methanopentalen-3a(1H)-yl]glycyl}pyrrolidine-2-carbonitrile]
The IC50 of the first is 3.3-fold higher: 0.1 µM for the first, 0.03 µM for the second. The second is the more potent here.

`N#C[C@@H]1CCCN1C(=O)CNC12CC3CC1CC(CN1CCCS1(=O)=O)(C3)C2` (stereo partly drawn) [Example 8, (2S)-1-{N-[2-[(1,1-dioxidoisothiazolidin-2-yl)methyl]hexahydro-2,5-methanopentalen-3a(1H)-yl]glycyl}pyrrolidine-2-carbonitrile] and `N#C[C@@H]1CCCN1C(=O)CNC12CC3CC1CC(N1CCCS1(=O)=O)(C3)C2` (stereo partly drawn) [Example 27, (2S)-1-{N-[2-(1,1-dioxidoisothiazolidin-2-yl)hexahydro-2,5-methanopentalen-3a(1H)-yl]glycyl}pyrrolidine-2-carbonitrile] are within 1.5-fold of each other in IC50: 0.022 µM for the first, 0.03 µM for the second.

`N#C[C@@H]1CCCN1C(=O)CNC12CC3CC1CC(CN1C(=O)CSC1=O)(C3)C2` (stereo partly drawn) [Example 9, (2S)-1-{N-[2-[(2,4-dioxo-1,3-thiazolidin-3-yl)methyl]hexahydro-2,5-methanopentalen-3a(1H)-yl]glycyl}pyrrolidine-2-carbonitrile] and `N#C[C@@H]1CCCN1C(=O)CNC12CC3CC1CC(CN1C(=O)c4ccccc4C1=O)(C3)C2` (stereo partly drawn) [Example 10, (2S)-1-{N-[2-[(1,3-dioxo-1,3-dihydro-2H-isoindol-2-yl)methyl]hexahydro-2,5-methanopentalen-3a(1H)-yl]glycyl}pyrrolidine-2-carbonitrile] are within 1.5-fold of each other in IC50: 0.0312 µM for the first, roughly 0.03 µM for the second.

First: N#C[C@@H]1CCCN1C(=O)CNC12CC3CC1CC(c1ccc(N4CCCS4(=O)=O)cc1)(C3)C2 (stereo partly drawn) [Example 11, (2S)-1-{N-[2-[4-(1,1-dioxidoisothiazolidin-2-yl)phenyl]hexahydro-2,5-methanopentalen-3a(1H)-yl]glycyl}pyrrolidine-2-carbonitrile]
Second: N#C[C@@H]1CSCN1C(=O)CNC12CC3CC1CC(c1ccc(N4CCCS4(=O)=O)cc1)(C3)C2 (stereo partly drawn) [Example 14, (4R)-3-{N-[2-[4-(1,1-dioxidoisothiazolidin-2-yl)phenyl]hexahydro-2,5-methanopentalen-3a(1H)-yl]glycyl}-1,3-thiazolidine-4-carbonitrile]
The IC50 of the first is 3.1-fold higher: 0.02 µM for the first, 0.0064 µM for the second.

First: N#C[C@@H]1C[C@H](F)CN1C(=O)CNC12CC3CC1CC(c1ccc(N4CCCS4(=O)=O)cc1)(C3)C2 (stereo partly drawn) [Example 12, (2S,4S)-1-{N-[2-[4-(1,1-dioxidoisothiazolidin-2-yl)phenyl]hexahydro-2,5-methanopentalen-3a(1H)-yl]glycyl}-4-fluoropyrrolidine-2-carbonitrile]
Second: N#C[C@@H]1C[C@H](F)CN1C(=O)CNC12CC3CC1CC(c1ccc(N4CCCC4=O)cc1)(C3)C2 (stereo partly drawn) [Example 16, (2S,4S)-4-fluoro-1-{N-[2-[4-(2-oxopyrrolidin-1-1)phenyl]hexahydro-2,5-methanopentalen-3a(1H)-yl]glycyl}pyrrolidine-2-carbonitrile]
The IC50 of the first is 5.3-fold higher: 0.005 µM for the first, 0.00095 µM for the second.

First: N#C[C@@H]1CCCN1C(=O)CNC12CC3CC1CC(c1ccc(N4CCCC4=O)cc1)(C3)C2 (stereo partly drawn) [Example 15, (2S)-1-{N-[2-[4-(2-oxopyrrolidin-1-yl)phenyl]hexahydro-2,5-methanopentalen-3a(1H)-yl]glycyl}pyrrolidine-2-carbonitrile]
Second: N#C[C@@H]1CSCN1C(=O)CNC12CC3CC1CC(c1ccc(N4CCCC4=O)cc1)(C3)C2 (stereo partly drawn) [Example 17, (4R)-3-{N-[2-[4-(2-oxopyrrolidin-1-yl)phenyl]hexahydro-2,5-methanopentalen-3a(1H)-yl]glycyl}-1,3-thiazolidine-4-carbonitrile]
The IC50 of the first is 2.2-fold lower: 0.004 µM for the first, 0.0087 µM for the second.

`N#C[C@@H]1CCCN1C(=O)CNC12CC3CC1CC(c1ccc(-n4cccc4)cc1)(C3)C2` (stereo partly drawn) [Example 18, (2S)-1-{N-[2-[4-(1H-pyrrol-1-yl)phenyl]hexahydro-2,5-methanopentalen-3a (1H)-yl]glycyl}pyrrolidine-2-carbonitrile] and `N#C[C@@H]1CCCN1C(=O)CNC12CC3CC1CC(c1ccc(N)cc1)(C3)C2` (stereo partly drawn) [Example 30, (2S)-1-{N-[2-(4-aminophenyl)hexahydro-2,5-methanopentalen-3a(1H)-yl]glycyl}pyrrolidine-2-carbonitrile] are within 1.5-fold of each other in IC50: roughly 0.03 µM for the first, roughly 0.0324 µM for the second.

Going from `N#C[C@@H]1CCCN1C(=O)CNC12CC3CC1CC(c1ccc(N4CCNC4=O)cc1)(C3)C2` (stereo partly drawn) [Example 19, (2S)-1-{N-[2-[4-(2-oxoimidazolidin-1-yl)phenyl]hexahydro-2,5-methanopentalen-3a(1H)-yl]glycyl}pyrrolidine-2-carbonitrile] to `CN1CCN(c2ccc(C34CC5CC(C3)C(NCC(=O)N3CCC[C@H]3C#N)(C5)C4)cc2)C1=O` (stereo partly shown) [Example 32], the IC50 rises from 0.0154 µM to 0.0536 µM (3.5-fold). The first is the more potent here.

Compared with `N#C[C@@H]1CCCN1C(=O)CNC12CC3CC(CC1C3)C2` [Example 20, (2S)-1-[(tricyclo[3.3.1.0^3,7]non-3-ylamino)acetyl]pyrrolidine-2-carbonitrile], `N#C[C@@H]1CCCN1C(=O)CNC12CC3CC1CC(O)(C3)C2` (stereo partly drawn) [Example 21, (2S)-1-{[(1-hydroxytricyclo[3.3.1.0^3,7]non-3-yl)amino]acetyl}pyrrolidine-2-carbonitrile] is 2.2-fold higher in IC50: 0.03 µM for the first, 0.0645 µM for the second. The first is the more potent here.

First: COC12CC3CC(C1)C(NCC(=O)N1CCC[C@H]1C#N)(C3)C2 (stereo partly drawn) [Example 22, (2S)-1-{[(1-methoxytricyclo[3.3.1.0^3,7]non-3-yl)amino]acetyl}pyrrolidine-2-carbonitrile]
Second: CCOC12CC3CC(C1)C(NCC(=O)N1CCC[C@H]1C#N)(C3)C2 (stereo partly drawn) [Example 23, (2S)-1-{[(1-ethoxytricyclo[3.3.1.0^3,7]non-3-yl)amino]acetyl}pyrrolidine-2-carbonitrile]
The IC50 of the first is 2.5-fold higher: 0.03 µM for the first, 0.0119 µM for the second.

`N#C[C@@H]1CCCN1C(=O)CNC12CC3CC1CC(N)(C3)C2` (stereo partly drawn) [Example 24, (2S)-1-{[(1-aminotricyclo[3.3.1.0^3,7]non-3-yl)amino]acetyl}pyrrolidine-2-carbonitrile] and `N#C[C@@H]1CCCN1C(=O)CNC12CC3CC1CC(F)(C3)C2` (stereo partly drawn) [Example 25, (2S)-1-[N-(2-fluorohexahydro-2,5-methanopentalen-3a(1H)-yl)glycyl]pyrrolidine-2-carbonitrile] are the same in IC50: 0.1 µM for the first, 0.1 µM for the second.

`N#C[C@@H]1CCCN1C(=O)CNC12CC3CC1CC(N1CCCC1=O)(C3)C2` (stereo partly drawn) [Example 26, (2S)-1-{N-[2-(2-oxopyrrolidin-1-yl)hexahydro-2,5-methanopentalen-3a(1H)-yl]glycyl}pyrrolidine-2-carbonitrile] and `N#C[C@@H]1CCCN1C(=O)CNC12CC3CC1CC(c1ccccc1)(C3)C2` (stereo partly drawn) [Example 28, (2S)-1-[N-(2-phenylhexahydro-2,5-methanopentalen-3a(1H)-yl)glycyl]pyrrolidine-2-carbonitrile] are within 1.5-fold of each other in IC50: 0.0218 µM for the first, 0.03 µM for the second.

`N#C[C@@H]1CCCN1C(=O)CNC12CC3CC1CC(c1ccc([N+](=O)[O-])cc1)(C3)C2` (stereo partly drawn) [Example 29, (2S)-1-{N-[2-(4-nitrophenyl)hexahydro-2,5-methanopentalen-3a(1H)-yl]glycyl}pyrrolidine-2-carbonitrile] gave an IC50 of roughly 0.03 µM.
